Reference: the NIST ThermoML archive (doi:10.1016/j.jct.2005.05.018)
Values joined by “and” are separate entries in the source; they are usually repeats but may differ in a detail not shown here. Identical values can stand only once.

Conditions: Liquid, Closed cell (Static) method

C[CH2][Sb]([CH2]C)[CH2]C [triethylstibine]
Conditions | vapor or sublimation pressure
238.42 K | 0.0037 kPa
243.46 K | 0.00611 kPa and 0.0061 kPa
248.47 K | 0.00991 kPa and 0.00989 kPa and 0.0099 kPa
253.48 K | 0.01569 kPa
258.48 K | 0.02451 kPa and 0.02448 kPa and 0.02449 kPa
263.48 K | 0.03735 kPa and 0.03734 kPa and 0.03733 kPa
268.48 K | 0.0557 kPa and 0.05561 kPa and 0.0556 kPa
273.68 K | 0.08268 kPa [middle of 4 runs]
278.49 K | 0.1181 kPa and 0.118 kPa
283.49 K | 0.1676 kPa
285.99 K | 0.1995 kPa
288.49 K | 0.2362 kPa and 0.2363 kPa
290.99 K | 0.2791 kPa and 0.279 kPa
293.49 K | 0.3288 kPa and 0.3282 kPa and 0.3281 kPa
295.99 K | 0.3849 kPa and 0.385 kPa
298.49 K | 0.4505 kPa and 0.4504 kPa and 0.4503 kPa
301 K | 0.5246 kPa
